Results on five molecules are retold here after US7098208B2, “Inhibitors of Akt activity” (Merck & Co., Inc., priority 2001, dated 2006).

Where only a bound is given, the exact number is not on record here.

The test system of this assay is PKC (mix of isoforms). Description: PKC Assay (counter screen). The format is biochemical. Conditions: myelin basic protein substrate; read-out: Counter screens IC50 (μM) PKC. How it is done:
Each PKC assay consists of the following components:
Final assay concentrations were as follows: 0.25 mM EGTA, 0.4 mM CaCl, 20 mM Tris pH 7.5, 10 mM MgCl, 1 mM 2-mercaptoethanol, 0.32 mg/ml phosphatidylserine, 0.032 mg/ml diacylglycerol, 10 μM ^33P-ATP, 70 μg/ml MBP, 10 ng/ml PKC, 0.1 mg/ml BSA.
Assays are performed using 96 deep well assay plates. In each assay well 10 μl of solvent control or appropriate inhibitor dilution with 5 μl ^33P-ATP (components #5 and #3) were premixed. In a separate tube, a mixture containing equal volumes of components #1, #2, #4, and #6 was prepared. The assay reaction was initiated by adding 35 μL of the components #1, #2, #4, and #6 mixture to wells containing ^33P-ATP and inhibitor. The liquid in the assay wells was thoroughly mixed and the assay reactions incubated for 20 minutes at room temperature. The reactions were stopped by adding 100 mM EDTA (50 μl) and 100 mM sodium pyrophosphate (50 μl) and mixing. Phosphorylated MBP was collected on PVDF membranes in 96 well filter plates and quantitated by scintillation counting.
On to `CN(C)CC(C)(C)CNc1nn2c(-c3ccccc3)nnc2cc1C1CCC1` [Compound 1, N′-(7-Cyclobutyl-3-phenyl-[1,2,4]triazolo[4,3-b]pyridazin-6-yl)-2,2,N,N-tetramethyl-propane-1,3-diamine], for which the concentration for half-maximal inhibition (IC50) is over 40 µM.

`CN(C)CC(C)(C)CNc1nn2c(-c3cc(F)cc(F)c3)nnc2cc1C1CCC1` [Compound 2, N′-(7-Cyclobutyl-3-(3,5-difluoro-phenyl)-[1,2,4]triazolo[4,3-b]pyridazin-6-yl)-2,2,N,N-tetramethyl-propane-1,3-diamine]: the IC50 is over 40 µM.

For the molecule `CN(C)CC(C)(C)CNc1nn2c(-c3ccc(F)c(F)c3)nnc2cc1C1CCC1` [Compound 3, N′-(7-Cyclobutyl-3-(3,4-difluoro-phenyl)-[1,2,4]triazolo[4,3-b]pyridazin-6-yl)-2,2,N,N-tetramethyl-propane-1,3-diamine], the IC50 is over 40 µM. With `CN(C)CC(C)(C)CNc1nn2c(-c3ccc(F)cc3)nnc2cc1C1CCC1` [Compound 4, N′-(7-Cyclobutyl-3-(4-fluoro-phenyl)-[1,2,4]triazolo[4,3-b]pyridazin-6-yl)-2,2,N,N-tetramethyl-propane-1,3-diamine], the IC50 was over 40 µM. The result for `CN(C)CC(C)(C)CNc1nn2c(-c3cccc(F)c3)nnc2cc1C1CCC1` [Compound 5, N′-(7-Cyclobutyl-3-(3-fluoro-phenyl)-[1,2,4]triazolo[4,3-b]pyridazin-6-yl)-2,2,N,N-tetramethyl-propane-1,3-diamine] reads over 40 µM.
